The text below walks through data of patent US20180369244A1, “BTK Inhibitors to Treat Solid Tumors Through Modulation of the Tumor Microenvironment” (Acerta Pharma B.V., priority 2014, published 2018).

In one experiment the test system is NSCLC (KrasLA2). Put plainly: KrasLA2 genetic NSCLC model. It is filed as in vivo, mice. From the text:
The model is designed to have sporadic expression in single cells of G12D mutant Kras off its own promoter triggered by spontaneous intrachromosomal recombination. Johnson, et al. Nature 2001, 410, 1111-16. While the mutant Kras protein is expressed in a few cells in all tissues, tumor development is seen only in the lung at high penetrance.

Another experiment relates to CD4+ T cells. Put plainly: Th17 and Treg development from CD4+ T cells. It is filed as cell-based. Here is the method: Enriched CD4^+ T cells are plated on 24-well culture dishes that have been precoated 2 hr with 250 μL anti-TCRβ (0.5 μg/mL) plus anti-CD28 (5 μg/mL) at 37° C. in PBS. The cells are then supplemented with media containing BTK inhibitors along with the skewing cytokines as indicated in the following. The Th17 and Treg cultures are grown for 4 days before analysis. The cells are maintained for an additional 3 days with skewing cytokines (Th17; 20 ng/mL IL-6, 0.5 ng/mL TGF-β, 5 μg/mL IL-4, 5 μg/mL IFN-γ and Treg; 0.5 ng/mL TGF-β, 5 μg/mL IL-4, 5 μg/mL IFN-γ) and are supplemented with IL2 as a growth factor.

`CC#CC(=O)N1CCC[C@H]1c1nc(-c2ccc(C(=O)Nc3ccccn3)cc2)c2c(N)nccn12` [Formula (II), (S)-4-(8-amino-3-(1-(but-2-ynoyl)pyrrolidin-2-yl)imidazo[1,5-a]pyrazin-1-yl)-N-(pyridin-2-yl)benzamide]: in the experiment on NSCLC (KrasLA2) (15 mg/kg), the number of tumors entry is “fewer overall tumors” and the “tumor volumes versus vehicle” value is recorded as “significant decrease in tumor volumes”. Further, the “immunosuppressive tumor associated TAMs” value in the experiment with NSCLC (KrasLA2) (FIG. 62) was “significant reduction”. Moreover, the “immunosuppressive tumor associated MDSCs” value in the experiment on NSCLC (KrasLA2) (FIG. 63) is recorded as “significant reduction”. The “immunosuppressive tumor associated Tregs” value in the experiment with NSCLC (KrasLA2) (FIG. 64) is “significant reduction”. For the same compound, the “Th17 and Treg development” value in the experiment on CD4+ T cells is “no adverse effects on Th17 and Treg development”.
